In patent US9855232B2, “Crystalline forms of bimatoprost acid, methods for preparation, and methods for use thereof” (Allergan, Inc., priority 2012, dated 2018):
Values after ≈ are worked out from the molar mass of the structure shown. Where two headings read alike, the source gives them in different places. One block for each molecule: values may come before it.

How the values were obtained:
Assay type in all cases: physicochemical
[1] = Solubility in nitromethane
Experimental: (§1) Anisole was selected as solvent based on good stability and measurable solubility of bimatoprost acid polymorphs in the studied temperature range. […] Another solvent, nitromethane, was selected to detect the solubility of bimatoprost acid at 9 and 22° C. […] At 22° C., both forms converted to oils where no comparison between the two polymorphs could be made.

[2] = Isothermal competitive co-slurries of polymorph I and II; settings: 1:1 ratio co-slurry at 5, 20 and 35° C.
Experimental: The differences in free energy between the polymorphs were measured as a function of temperature in order to determine the transition temperature and relative stability versus temperature.

[3] = Vapor sorption analysis (VSA); settings: for relative humidity at which the monohydrate (hydrated form) forms: first adsorption
Experimental: The crystalline monohydrate form (designated polymorph III) was discovered upon vapor sorption analysis (VSA) of both polymorph I and polymorph II. […] The conversion of polymorph I to the monohydrate form was confirmed by XRPD. […] The 2nd adsorption cycle of polymorph II reconfirms formation of the monohydrate again at RH˜75% (FIG. 7). […] The thermal analysis (MDSC) of the monohydrate form indicates a melting endotherm onset (Tonset) at 53.9° C. and a fusion enthalpy (ΔHf) of 72.4 J/g for the monohydrate form (see FIG. 8).

[4] = Thermodynamic equilibrium solubility in anisole
Experimental: as §1

solubility ([1]; 9 °C, organic solvent or mixture, thermodynamic from solid, read-out: solubility): 4100 ± 300 µg/mL (≈ 10.6 mM)
relative humidity at which the monohydrate (hydrated form) forms ([3]; 25° C.): ~75 % RH
water absorbed ([3]; RH~75%, 25° C.): 4.42 w/w %
SMILES: O=C(O)CCCC=CCC1C(O)CC(O)C1C=CC(O)CCc1ccccc1 (centres unmarked) [polymorph I, 7-[3,5-Dihydroxy-2-(3-hydroxy-5-phenyl-pent-1-enyl)-cyclopentyl]-hept-5-enoic acid]
polymorph conversion / relative stability [2]: converts to polymorph II at all three temperatures

solubility ([1]; 9° C.): 3300 ± 200 µg/mL (≈ 8.49 mM)
relative humidity at which the monohydrate forms ([3]; 2nd adsorption cycle): ~75%
relative humidity at which the monohydrate (hydrated form) forms ([3]; 25° C.): above 85 % RH
thermodynamic equilibrium solubility (comparison of polymorphs) ([4]; 6° C. and 25° C.): lower solubility
SMILES: O=C(O)CCCC=CCC1C(O)CC(O)C1C=CC(O)CCc1ccccc1 (centres unmarked) [polymorph II, 7-[3,5-Dihydroxy-2-(3-hydroxy-5-phenyl-pent-1-enyl)-cyclopentyl]-hept-5-enoic acid]
polymorph conversion / relative stability [2]: more stable form over the temperature range of 5-35 °C

physical state in solubility study ([4]; temperatures above 40° C.): transforms to an oil
SMILES: O=C(O)CCCC=CCC1C(O)CC(O)C1C=CC(O)CCc1ccccc1 (centres unmarked) [bimatoprost acid, 7-[3,5-Dihydroxy-2-(3-hydroxy-5-phenyl-pent-1-enyl)-cyclopentyl]-hept-5-enoic acid]

SMILES: O=C(O)CCCC=CCC1C(O)CC(O)C1C=CC(O)CCc1ccccc1 (centres unmarked) [polymorph III, 7-[3,5-Dihydroxy-2-(3-hydroxy-5-phenyl-pent-1-enyl)-cyclopentyl]-hept-5-enoic acid]
conversion upon drying ([3]; drying in vapor sorption analyzer at 25° C.): converted beck to the initial polymorph 1
